The values that follow come from ChEMBL document CHEMBL4602601, “Pharmaceutical and medicinal significance of sulfur (SVI)-Containing motifs for drug discovery: A critical review” (Eur J Med Chem, 2019).

One may read the pEC50 as −log10 of the EC50, conventionally taken in molar units. A high value points to a small EC50. A word on the pIC50: it is the negative decadic logarithm of the IC50, by convention in mol/L. As usually defined, the pKi is the Ki on a negative log10 scale, so that one unit is a factor of ten. A high value points to a low Ki. As usually defined, the EC50 is the concentration giving half of the maximal effect. Lower therefore signals higher potency in that assay. The term half-life denotes the time needed for the level to fall by half in the phase considered. Higher therefore signals slow decline.

pEC50, pIC50, pKi: −log10 of the molar value.

For one data set, the system named is Chikungunya virus. The data set can be described thus: Antiviral activity against CHIKV. It counts as functional, organism-based.
A further data set relates to Leishmania infantum. The data set can be described thus: Antileishmanial activity against Leishmania infantum. It counts as functional, organism-based.
The next data set deals with Trypanosoma cruzi. The data set can be described thus: Antitrypanosomal activity against Trypanosoma cruzi. It counts as functional, organism-based.
Another data set relates to Leishmania amazonensis. The data set can be described thus: Antileishmanial activity against Leishmania amazonensis. The data set is classed as functional, organism-based.
Data set [1] addresses 5-hydroxytryptamine receptor 6 (Homo sapiens, UniProt P50406). The data set can be described thus: Antagonist activity at 5-HT6 receptor (unknown origin).
In the next data set the target is Carbonic anhydrase 2 (Homo sapiens, UniProt P00918). Nature of the data set: Inhibition of human carbonic anhydrase 2.
A short description of data set [2]: Antagonist activity at cannabinoid receptor (unknown origin). Details: species or system Homo sapiens.
For another data set, the target named is Carbonic anhydrase 1 (Homo sapiens, UniProt P00915). The data set can be described thus: Inhibition of human carbonic anhydrase 1.
Data set [3] addresses T1, Cannabinoid receptor 1 (Homo sapiens, UniProt P21554). Nature of the data set: Antagonist activity at human cannabinoid CB1 receptor.
For data set [4], the target named is T2, Prostaglandin G/H synthase 2 (Rattus norvegicus, UniProt P35355).
T2 sequence (P35355 whole entry): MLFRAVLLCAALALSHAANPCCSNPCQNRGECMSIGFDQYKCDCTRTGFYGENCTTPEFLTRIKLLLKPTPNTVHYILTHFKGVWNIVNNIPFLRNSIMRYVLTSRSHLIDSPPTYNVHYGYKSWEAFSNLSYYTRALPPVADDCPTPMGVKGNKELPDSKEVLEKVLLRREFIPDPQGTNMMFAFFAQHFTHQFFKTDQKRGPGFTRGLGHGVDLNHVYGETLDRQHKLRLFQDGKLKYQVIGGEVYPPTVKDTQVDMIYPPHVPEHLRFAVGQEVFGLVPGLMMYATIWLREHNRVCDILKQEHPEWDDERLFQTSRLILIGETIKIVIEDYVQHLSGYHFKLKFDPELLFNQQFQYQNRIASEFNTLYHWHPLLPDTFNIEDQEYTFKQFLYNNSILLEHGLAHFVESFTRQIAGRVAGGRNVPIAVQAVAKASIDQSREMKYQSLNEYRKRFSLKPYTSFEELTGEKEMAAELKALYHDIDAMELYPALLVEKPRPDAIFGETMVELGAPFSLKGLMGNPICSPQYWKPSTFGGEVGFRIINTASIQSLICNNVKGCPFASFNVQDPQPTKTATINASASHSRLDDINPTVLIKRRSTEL
The data set can be described thus: Inhibition of COX2 isolated from rat seminal vesicles assessed as reduction of PGG2 to PGH2 using arachidonic acid substrate preincubated for 15 mins followed by substrate addition.

The nature of data set [5]: Inhibition of rat 5'-nucleotidase.
A short description of data set [6]: Half life in rat. It counts as ADME. As to conditions: in vivo.
A short description of data set [7]: Inhibition of HIV protease. Details: species or system Human immunodeficiency virus.
The next data set has as its system THP-1. The data set can be described thus: Cytotoxicity against human THP1 cells assessed as reduction in cell viability. It counts as functional, cell-based.
A further data set addresses Cannabinoid receptor 2 (Homo sapiens, UniProt P34972). The data set can be described thus: Antagonist activity at human cannabinoid CB2 receptor.
The target in data set [8] is T1, Cannabinoid receptor 1. The data set can be described thus: Antagonist activity at cannabinoid CB1 receptor (unknown origin).
The nature of data set [9]: Inhibition of HIV RT. Set-up: species or system Human immunodeficiency virus.
Data set [10] is described as follows: Inhibition of HIV integrase. Details: species or system Human immunodeficiency virus.
The test system of data set [11] is Human immunodeficiency virus 1. Nature of the data set: Antiviral activity against HIV1. The data set is classed as functional, organism-based.
For a further data set, the target named is Carbonic anhydrase 4 (Homo sapiens, UniProt P22748). Nature of the data set: Inhibition of human carbonic anhydrase 4.
Chain of Carbonic anhydrase 4 (P22748 whole entry): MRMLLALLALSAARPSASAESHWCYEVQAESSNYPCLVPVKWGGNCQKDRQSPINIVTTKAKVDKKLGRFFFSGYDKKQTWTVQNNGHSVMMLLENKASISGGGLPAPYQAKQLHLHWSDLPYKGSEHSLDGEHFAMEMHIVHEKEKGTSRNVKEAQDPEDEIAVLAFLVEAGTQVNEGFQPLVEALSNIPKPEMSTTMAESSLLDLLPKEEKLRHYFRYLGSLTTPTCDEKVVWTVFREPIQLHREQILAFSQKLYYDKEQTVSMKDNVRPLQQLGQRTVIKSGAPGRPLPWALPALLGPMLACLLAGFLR

Chain of 5-hydroxytryptamine receptor 6 (P50406 whole entry): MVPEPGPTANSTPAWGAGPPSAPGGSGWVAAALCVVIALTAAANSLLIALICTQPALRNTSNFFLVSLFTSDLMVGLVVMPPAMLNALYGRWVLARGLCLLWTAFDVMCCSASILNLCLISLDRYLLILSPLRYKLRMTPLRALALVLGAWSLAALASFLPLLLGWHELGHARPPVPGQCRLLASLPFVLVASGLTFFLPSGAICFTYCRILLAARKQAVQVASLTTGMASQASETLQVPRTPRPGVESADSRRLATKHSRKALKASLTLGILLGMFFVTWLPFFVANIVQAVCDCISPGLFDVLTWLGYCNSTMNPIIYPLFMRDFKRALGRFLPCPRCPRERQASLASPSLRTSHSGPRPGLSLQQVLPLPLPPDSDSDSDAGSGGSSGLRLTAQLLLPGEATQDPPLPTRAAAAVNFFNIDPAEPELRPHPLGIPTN
T1 sequence (P21554 whole entry): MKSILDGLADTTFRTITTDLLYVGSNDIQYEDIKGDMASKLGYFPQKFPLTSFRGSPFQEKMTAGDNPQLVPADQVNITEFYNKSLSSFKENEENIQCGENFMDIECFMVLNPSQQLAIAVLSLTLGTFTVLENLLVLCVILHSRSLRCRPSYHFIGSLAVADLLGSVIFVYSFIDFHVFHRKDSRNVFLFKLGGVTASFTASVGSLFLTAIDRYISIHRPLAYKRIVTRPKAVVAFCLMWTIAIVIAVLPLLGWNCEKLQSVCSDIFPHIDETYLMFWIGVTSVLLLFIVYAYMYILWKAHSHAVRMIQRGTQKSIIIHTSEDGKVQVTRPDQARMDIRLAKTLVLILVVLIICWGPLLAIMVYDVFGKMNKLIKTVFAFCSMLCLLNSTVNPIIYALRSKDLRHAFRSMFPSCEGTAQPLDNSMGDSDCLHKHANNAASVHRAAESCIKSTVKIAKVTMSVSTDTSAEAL
Chain of Cannabinoid receptor 2 (P34972 whole entry): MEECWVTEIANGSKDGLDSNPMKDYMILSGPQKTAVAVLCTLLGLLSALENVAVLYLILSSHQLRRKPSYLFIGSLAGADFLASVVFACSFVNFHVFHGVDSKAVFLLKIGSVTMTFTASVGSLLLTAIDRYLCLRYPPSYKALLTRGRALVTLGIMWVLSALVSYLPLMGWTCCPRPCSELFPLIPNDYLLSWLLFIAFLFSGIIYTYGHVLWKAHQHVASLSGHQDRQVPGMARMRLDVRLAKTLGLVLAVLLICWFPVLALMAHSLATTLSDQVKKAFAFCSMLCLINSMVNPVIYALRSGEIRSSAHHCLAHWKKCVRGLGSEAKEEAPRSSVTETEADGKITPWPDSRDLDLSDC
Chain of Carbonic anhydrase 1 (P00915 whole entry): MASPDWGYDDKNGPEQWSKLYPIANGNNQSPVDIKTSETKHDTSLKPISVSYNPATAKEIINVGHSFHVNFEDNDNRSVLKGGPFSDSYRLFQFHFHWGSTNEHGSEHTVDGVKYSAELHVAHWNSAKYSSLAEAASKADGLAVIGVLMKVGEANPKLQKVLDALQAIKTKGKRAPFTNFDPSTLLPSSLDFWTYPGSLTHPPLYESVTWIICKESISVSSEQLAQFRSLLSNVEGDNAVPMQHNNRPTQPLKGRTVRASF

The molecule `Cc1ccc(S(=O)(=O)Oc2ccc3c(CSc4nc5ccccc5c(=O)[nH]4)cc(=O)oc3c2)cc1` showed a pEC50 in the data set on Chikungunya virus of 4.99.

For `O=S(=O)(Nc1cccc2cnccc12)c1ccc2ccccc2c1`, the pIC50 was 4.64 in the data set on Leishmania infantum, 3.65 in the data set on Trypanosoma cruzi and 4.37 with Leishmania amazonensis.

Consider `CN1CCN(c2nc3cc(NS(=O)(=O)c4cccc5ccccc45)ccc3s2)CC1`, for which the pIC50 in data set [1] was 5.41.

Turning to `CC(=O)N1CCc2ccc(NS(=O)(=O)c3c(Cl)nc4n3CCS4)cc21`, the pKi in [1] is 8.27.

Regarding `NS(=O)(=O)c1ccc(N2C(=O)CC/C2=C\C(=O)c2ccc([N+](=O)[O-])cc2Cl)cc1`, the pIC50 against Carbonic anhydrase 2 was 9.34.

For the molecule `CCCC(=O)/C(=N/Nc1cccc(-n2nc(C(=O)Nc3nnc(S(N)(=O)=O)s3)c(C(=O)Nc3nnc(S(N)(=O)=O)s3)c2-c2ccccc2)c1)C(=O)OCC`, the pKi on Carbonic anhydrase 2 was 6.05.

For the molecule `O=S(=O)(NCc1ccc(-c2ccc(F)cc2F)cn1)c1cc2cc(Cl)ccc2[nH]1`, the pIC50 in [2] is 8.52.

Regarding `CCOc1ccc(-c2ccc(CNS(=O)(=O)c3cc4cc(Cl)ccc4[nH]3)cc2)cn1`, in data set [2], the pIC50 was 8.40.

On Carbonic anhydrase 1, `CC(=O)/C(=N\Nc1cccc(-n2nc(C(=O)Nc3nnc(S(N)(=O)=O)s3)c(C(=O)Nc3nnc(S(N)(=O)=O)s3)c2-c2ccccc2)c1)C(=O)c1ccccc1` had a pKi of 6.92.

At Cannabinoid receptor 1 [3], `Cc1cc(S(=O)(=O)N2CCc3c(nc(CC(C)(C)C)n3CC3CC3)C2)no1` had a pEC50 of 8.15.

`CCn1cnc2c(Oc3ccc(/C=C/C(=O)c4ccc(NS(=O)(=O)c5ccccc5C)cc4)cc3)ncnc21` showed an EC50 with Chikungunya virus of 51.6 µg/mL.

For `O=S(=O)(Cl)c1c(Cl)nc2n1CCS2`, the pKi in [1] was 8.08.

On Carbonic anhydrase 2, `NS(=O)(=O)c1ccc(N2C(=O)CC/C2=C\C(=O)c2cccc(F)c2)cc1` gave a pIC50 of 9.34.

For `C/C(=N\NC(=O)CNC(=O)c1cccc(S(=O)(=O)Nc2ccccc2Cl)c1)c1ccc(F)cc1`, the pIC50 in data set [4] is 5.08.

`COc1ccc(/C=C/C(=O)/C(=N/Nc2ccc(S(N)(=O)=O)cc2)N2CCOCC2)cc1` showed a pIC50 in [5] of 6.48.

Consider `O=S(=O)(Nc1ccc2sc(N3CCNCC3)nc2c1)c1cccc2ccccc12`, for which the pKi in [1] was 6.30.

`N#Cc1ccc(S(=O)(=O)Nc2cccc(C(c3c(O)c4c(oc3=O)CCCCCC4)C3CC3)c2)cc1` (configuration not stated) showed a pIC50 in the data set with Chikungunya virus of 8.82. In data set [6], the half-life is 360 min. In data set [7], this molecule had a pKi of 9.10.

For `O=S(=O)(Nc1ccc([Se][Se]c2ccc(NS(=O)(=O)c3ccc(F)cc3)cc2)cc1)c1ccc(F)cc1`, the pIC50 with THP-1 is 5.55.

Regarding `Cc1cc(S(=O)(=O)N2CCc3c(nc(C(C)(C)C)n3CC3CC3)C2)no1`, the pEC50 at Cannabinoid receptor 1 [3] was 8.29.

With `NS(=O)(=O)c1ccc(N2C(=O)/C(=C/c3ccc(C(F)(F)F)cc3)C=C2c2ccc(Cl)cc2)cc1`, in data set [4], the pIC50 was 6.21.

`COc1cc(/C=C2\C=C(c3ccc(Cl)cc3)N(c3ccc(S(N)(=O)=O)cc3)C2=O)cc(OC)c1OC`: in data set [4], the pIC50 is 6.38.

In turn, `O=c1ccnc(SCc2cc(=O)oc3cc(OS(=O)(=O)c4ccccc4[N+](=O)[O-])ccc23)[nH]1` gave a pEC50 with Chikungunya virus of 4.89.

In data set [1], `O=S(=O)(Nc1ccc2[nH]ccc2c1)c1c(Cl)nc2n1CCS2` showed a pKi of 7.77.

Consider `O=C(NN1CCCCC1)c1cn(-c2ccc(Cl)cc2Cl)c(-c2ccc(C#Cc3ccc(C(F)(F)F)cc3)s2)c1CNS(=O)(=O)N1CCCC1`, for which the pKi at Cannabinoid receptor 2 was 7.68; at Cannabinoid receptor 1 [3] it was 9.52. This molecule had a pEC50 on Cannabinoid receptor 1 [8] of 8.52.

`O=C(CNC(=O)c1cccc(S(=O)(=O)Nc2ccccc2Cl)c1)N/N=C/c1ccc(C(F)(F)F)cc1`: in [4], the pIC50 is 5.05.

Regarding `CN(C)c1cccnc1N1CCN(C(=O)c2cc3cc(NS(C)(=O)=O)ccc3[nH]2)CC1`, the pIC50 is < 4.00 in data set [9], 7.44 in data set [10] and 7.68 in [11].

For the molecule `CC(C)c1ccc(S(=O)(=O)Nc2ccc3nc(N4CCN(C)CC4)sc3c2)cc1`, in data set [1], the pIC50 was 4.85.

As to `COc1ccc(C2=NN(C(C)=O)C(c3ccc(OS(N)(=O)=O)cc3)C2)cc1` (configuration not stated), the pIC50 against Carbonic anhydrase 2 was 9.40; at Carbonic anhydrase 4, 7.69.
